Assay results as given in paper PMC7305291, “Cryo-EM snapshots of mycobacterial arabinosyltransferase complex EmbB2-AcpM2” (Protein & Cell, 2020).
Where a chain is given by its changes, count along the chain named.

Key:
[1] = target: T1, EmbB2-AcpM2 complex (Msm EmbB) (Mycolicibacterium smegmatis, UniProt A0R614); assay: microscale thermophoresis (MST); format: binding
T1 construct: gene MSMEG_6389; full-length EmbB, C-terminal 10xHis tag, pMV261 vector, homologous overexpression in M. smegmatis, detergent purified then amphipol exchanged; homodimer with endogenous co-purified AcpM on each protomer; with Meromycolate extension acyl carrier protein
T1 sequence (A0R614 1-1082): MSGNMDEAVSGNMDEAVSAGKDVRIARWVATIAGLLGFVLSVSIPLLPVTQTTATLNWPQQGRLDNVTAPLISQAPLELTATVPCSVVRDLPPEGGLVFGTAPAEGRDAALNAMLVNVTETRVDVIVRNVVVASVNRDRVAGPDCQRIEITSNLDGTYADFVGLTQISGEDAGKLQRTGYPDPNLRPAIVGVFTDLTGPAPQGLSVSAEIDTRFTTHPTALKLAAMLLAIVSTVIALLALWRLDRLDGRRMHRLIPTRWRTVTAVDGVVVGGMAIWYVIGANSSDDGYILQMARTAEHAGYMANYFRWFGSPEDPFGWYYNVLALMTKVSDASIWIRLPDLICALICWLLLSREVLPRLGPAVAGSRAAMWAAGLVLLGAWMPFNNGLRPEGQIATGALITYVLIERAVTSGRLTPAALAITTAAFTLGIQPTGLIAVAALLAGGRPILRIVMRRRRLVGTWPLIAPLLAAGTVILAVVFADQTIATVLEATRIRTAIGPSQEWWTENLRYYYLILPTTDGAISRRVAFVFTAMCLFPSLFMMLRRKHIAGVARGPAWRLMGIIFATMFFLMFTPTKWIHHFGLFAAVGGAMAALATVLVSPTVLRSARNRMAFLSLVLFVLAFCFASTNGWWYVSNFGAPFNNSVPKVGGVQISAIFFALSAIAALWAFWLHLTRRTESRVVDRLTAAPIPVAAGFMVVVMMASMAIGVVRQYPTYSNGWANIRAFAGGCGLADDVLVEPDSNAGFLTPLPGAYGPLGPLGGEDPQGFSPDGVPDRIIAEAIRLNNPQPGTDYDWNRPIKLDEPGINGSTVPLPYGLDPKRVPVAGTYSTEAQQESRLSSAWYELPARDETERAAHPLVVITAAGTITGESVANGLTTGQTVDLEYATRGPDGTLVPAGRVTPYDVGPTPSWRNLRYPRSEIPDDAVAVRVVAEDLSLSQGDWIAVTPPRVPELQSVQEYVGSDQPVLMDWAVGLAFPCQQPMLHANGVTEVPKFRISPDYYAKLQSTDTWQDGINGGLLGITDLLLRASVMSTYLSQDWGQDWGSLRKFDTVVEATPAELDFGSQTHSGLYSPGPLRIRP
T1 sequence (A0R0B3 1-99 partner): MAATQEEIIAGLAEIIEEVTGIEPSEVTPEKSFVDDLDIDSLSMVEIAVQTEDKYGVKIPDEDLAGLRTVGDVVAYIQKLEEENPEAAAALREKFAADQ

[2] = target: T1, EmbB2-AcpM2 complex (Msm EmbB); assay: cryo-EM structure of the complex, […] Å; mass spectrometry of co-purified lipid; format: binding; conditions: endogenous donor substrate, bound in one protomer of the asymmetric active state
[3] = target: the molecule itself; assay: cryo-EM structure; detergent purified, amphipol exchanged EmbB with co-purified endogenous AcpM; single-particle analysis; two 3D classes refined: symmetric resting state (3.6 A) and asymmetric DPA-bound active state (3.5 A)

`CC[C@@H](CO)NCCN[C@@H](CC)CO` [ethambutol] showed a Kd [1] of 1.58 µM.

In the case of `CC(C)=CCC/C(C)=C/CC/C(C)=C\CC/C(C)=C\CC/C(C)=C\CC/C(C)=C\CC/C(C)=C\CC/C(C)=C\CC/C(C)=C\CC/C(C)=C\COP(=O)(O)O[C@@H]1O[C@H](CO)[C@@H](O)[C@@H]1O` [decaprenyl-phosphate-arabinose], the “cryo-EM structure of the complex, 3.5 Å; mass spectrometry of co-purified lipid” value [2] is reported as “The whole of the DPA fits into this part of the map”.

B1: Mycobacterium smegmatis arabinosyltransferase EmbB (MSMEG_6389) (enzyme, UniProt Q50395 1-1082, looked up)
chain: T1 sequence (A0R614 1-1082) with M453I, V459D, N508K, I579T
notes: arabinosyltransferase EmbB of Mycobacterium smegmatis, locus MSMEG_6389; 69.6% identical to Mtb EmbB (Rv_3795); Seen as a homodimer by cryo-EM, with one AcpM on each protomer (EmbB2-AcpM2); also called Msm EmbB; EmbB protomer
For B1, the “stoichiometry N” value [3] was 2.
